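The compound was tested at five concentrations on cells cultured in 96-well plates, with a 48-hour exposure period. At the GI50, growth is halved.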 Active and inactive are the calls of the source. Rule as the data show it: active = GI50 up to about 1.1 µM and inactive = higher.
Experiments:
Experiment in all cases: DTP human tumour cell line panel, 48 h
MDA-MB-435 = system: MDA-MB-435
HCT-15 = system: HCT-15
OVCAR-3 = system: OVCAR-3
KM12 = system: KM12
HOP-92 = system: HOP-92
SNB-75 = system: SNB-75
OVCAR-4 = system: OVCAR-4
UACC-257 = system: UACC-257
Malme-3M = system: Malme-3M
NCI-H226 = system: NCI-H226
BT-549 = system: BT-549
CAKI-1 = system: CAKI-1
SF-539 = system: SF-539
786-0 = system: 786-0
SK-MEL-28 = system: SK-MEL-28
M14 = system: M14
HOP-62 = system: HOP-62
HL-60 = system: HL-60
TK-10 = system: TK-10
HT-29 = system: HT-29
RXF 393 = system: RXF 393
MDA-N = system: MDA-N
SF-295 = system: SF-295
SF-268 = system: SF-268
IGROV-1 = system: IGROV-1
NCI-H23 = system: NCI-H23
K562 = system: K562
HCT-116 = system: HCT-116
RPMI-8226 = system: RPMI-8226
NCI-H460 = system: NCI-H460
LOX IMVI = system: LOX IMVI
SK-MEL-5 = system: SK-MEL-5
NCI-H522 = system: NCI-H522
PC-3 = system: PC-3
SNB-19 = system: SNB-19
EKVX = system: EKVX
SK-OV-3 = system: SK-OV-3
SW-620 = system: SW-620
NCI/ADR-RES = system: NCI/ADR-RES
MDA-MB-231 = system: MDA-MB-231
A549 = system: A549
SN12C = system: SN12C
ACHN = system: ACHN
OVCAR-8 = system: OVCAR-8
CCRF-CEM = system: CCRF-CEM
SK-MEL-2 = system: SK-MEL-2
U-251 = system: U-251
Hs-578T = system: Hs-578T
MOLT-4 = system: MOLT-4
COLO 205 = system: COLO 205
UACC-62 = system: UACC-62
MCF7 = system: MCF7
HCC 2998 = system: HCC 2998
A498 = system: A498
T47D = system: T47D
OVCAR-5 = system: OVCAR-5
UO-31 = system: UO-31
DU-145 = system: DU-145
SR = system: SR

O=C(O)CC1NC(/C(=C/c2ccccc2O)NC(=O)c2ccccc2)OC1=O (stereo not given)
GI50 (MDA-MB-435): 9.29 µM (inactive) | GI50 (HCT-15): 30 µM | GI50 (OVCAR-3): > 33.5 µM (inactive) | GI50 (KM12): 5.14 µM (inactive) | GI50 (HOP-92): 28.7 µM (inactive) | GI50 (SNB-75): 7.21 µM (inactive) | GI50 (OVCAR-4): 7.59 µM (inactive) | GI50 (UACC-257): > 58.5 µM (inactive) | GI50 (Malme-3M): 55.7 µM (inactive) | GI50 (NCI-H226): 17 µM (inactive) | GI50 (BT-549): 13.9 µM (inactive) | GI50 (CAKI-1): > 56.1 µM (inactive) | GI50 (SF-539): 22.3 µM (inactive) | GI50 (786-0): 30.3 µM (inactive) | GI50 (SK-MEL-28): > 100 µM (inactive) | GI50 (M14): > 78 µM (inactive) | GI50 (HOP-62): 14 µM (inactive) | GI50 (HL-60): > 43.9 µM (inactive) | GI50 (TK-10): 61 µM (inactive) | GI50 (HT-29): > 96.6 µM (inactive) | GI50 (RXF 393): 29 µM (inactive) | GI50 (MDA-N): 29.4 µM (inactive) | GI50 (SF-295): 26.6 µM (inactive) | GI50 (SF-268): > 23.3 µM (inactive) | GI50 (IGROV-1): 14.3 µM (inactive) | GI50 (NCI-H23): 26.1 µM (inactive) | GI50 (K562): > 100 µM (inactive) | GI50 (HCT-116): 45.9 µM (inactive) | GI50 (RPMI-8226): > 100 µM (inactive) | GI50 (NCI-H460): > 58.7 µM (inactive) | GI50 (LOX IMVI): 50.9 µM (inactive) | GI50 (SK-MEL-5): > 73.5 µM (inactive) | GI50 (NCI-H522): 33 µM (inactive) | GI50 (PC-3): 49 µM (inactive) | GI50 (SNB-19): 17.8 µM (inactive) | GI50 (EKVX): > 33.7 µM (inactive) | GI50 (SK-OV-3): 23 µM (inactive) | GI50 (SW-620): > 100 µM (inactive) | GI50 (NCI/ADR-RES): 19.5 µM (inactive) | GI50 (MDA-MB-231): 22.1 µM (inactive) | GI50 (A549): > 100 µM (inactive) | GI50 (SN12C): 48.8 µM (inactive) | GI50 (ACHN): 19.3 µM (inactive) | GI50 (OVCAR-8): 27.3 µM (inactive) | GI50 (CCRF-CEM): > 100 µM (inactive) | GI50 (SK-MEL-2): 47.2 µM (inactive) | GI50 (U-251): 24.7 µM (inactive) | GI50 (Hs-578T): 24.7 µM (inactive) | GI50 (MOLT-4): > 100 µM (inactive) | GI50 (COLO 205): > 100 µM (inactive) | GI50 (UACC-62): 25.8 µM (inactive) | GI50 (MCF7): 3.97 µM (inactive) | GI50 (HCC 2998): > 40.4 µM (inactive) | GI50 (A498): > 75 µM (inactive) | GI50 (T47D): 11.7 µM (inactive) | GI50 (OVCAR-5): > 100 µM (inactive) | GI50 (UO-31): 33.9 µM (inactive) | GI50 (DU-145): > 79.6 µM (inactive)

O=C(NNC(=O)c1cc2ccccc2[nH]1)c1cc2ccccc2[nH]1
GI50 (MDA-MB-435): > 100 µM (inactive) | GI50 (HCT-15): > 100 µM | GI50 (OVCAR-3): > 100 µM (inactive) | GI50 (KM12): > 100 µM (inactive) | GI50 (SNB-75): > 100 µM (inactive) | GI50 (OVCAR-4): > 100 µM (inactive) | GI50 (UACC-257): > 100 µM (inactive) | GI50 (Malme-3M): > 100 µM (inactive) | GI50 (NCI-H226): > 100 µM (inactive) | GI50 (BT-549): > 100 µM (inactive) | GI50 (CAKI-1): > 100 µM (inactive) | GI50 (SF-539): > 100 µM (inactive) | GI50 (786-0): > 100 µM (inactive) | GI50 (SK-MEL-28): > 100 µM (inactive) | GI50 (M14): > 100 µM (inactive) | GI50 (HOP-62): > 100 µM (inactive) | GI50 (HL-60): 95.7 µM (inactive) | GI50 (TK-10): > 100 µM (inactive) | GI50 (HT-29): > 100 µM (inactive) | GI50 (RXF 393): > 100 µM (inactive) | GI50 (MDA-N): > 100 µM (inactive) | GI50 (SF-295): > 100 µM (inactive) | GI50 (SF-268): > 100 µM (inactive) | GI50 (IGROV-1): > 100 µM (inactive) | GI50 (K562): 80 µM (inactive) | GI50 (HCT-116): > 100 µM (inactive) | GI50 (RPMI-8226): > 100 µM (inactive) | GI50 (NCI-H460): > 100 µM (inactive) | GI50 (LOX IMVI): > 100 µM (inactive) | GI50 (SK-MEL-5): > 100 µM (inactive) | GI50 (NCI-H522): > 100 µM (inactive) | GI50 (PC-3): > 100 µM (inactive) | GI50 (SNB-19): > 100 µM (inactive) | GI50 (EKVX): > 100 µM (inactive) | GI50 (SK-OV-3): > 100 µM (inactive) | GI50 (SW-620): > 100 µM (inactive) | GI50 (NCI/ADR-RES): > 100 µM (inactive) | GI50 (MDA-MB-231): > 100 µM (inactive) | GI50 (SR): 66.5 µM (inactive) | GI50 (A549): > 100 µM (inactive) | GI50 (SN12C): > 100 µM (inactive) | GI50 (OVCAR-8): > 100 µM (inactive) | GI50 (CCRF-CEM): > 100 µM (inactive) | GI50 (SK-MEL-2): > 100 µM (inactive) | GI50 (U-251): > 100 µM (inactive) | GI50 (Hs-578T): > 100 µM (inactive) | GI50 (MOLT-4): > 100 µM (inactive) | GI50 (COLO 205): > 100 µM (inactive) | GI50 (UACC-62): > 100 µM (inactive) | GI50 (MCF7): > 100 µM (inactive) | GI50 (A498): > 100 µM (inactive) | GI50 (T47D): > 100 µM (inactive) | GI50 (OVCAR-5): > 100 µM (inactive) | GI50 (UO-31): > 100 µM (inactive) | GI50 (DU-145): > 100 µM (inactive)

C[C@H](CCC(=O)O)[C@H]1CC[C@H]2[C@@H]3CC[C@@H]4C[C@H](O)CC[C@]4(C)[C@H]3C[C@H](O)[C@]12C [DEOXYCHOLIC ACID]
GI50 (MDA-MB-435): 42.2 µM (inactive) | GI50 (HCT-15): 36.1 µM | GI50 (OVCAR-3): 20.4 µM (inactive) | GI50 (KM12): 49.4 µM (inactive) | GI50 (SNB-75): 37.1 µM (inactive) | GI50 (OVCAR-4): 49.7 µM (inactive) | GI50 (UACC-257): 92.3 µM (inactive) | GI50 (Malme-3M): 32.8 µM (inactive) | GI50 (NCI-H226): 95.1 µM (inactive) | GI50 (BT-549): 48.4 µM (inactive) | GI50 (CAKI-1): 69.5 µM (inactive) | GI50 (SF-539): 48 µM (inactive) | GI50 (786-0): 45.8 µM (inactive) | GI50 (SK-MEL-28): 63.1 µM (inactive) | GI50 (M14): 34.3 µM (inactive) | GI50 (HOP-62): 26.4 µM (inactive) | GI50 (HL-60): 30.1 µM (inactive) | GI50 (TK-10): > 100 µM (inactive) | GI50 (HT-29): 34.1 µM (inactive) | GI50 (RXF 393): 52.4 µM (inactive) | GI50 (MDA-N): 42.2 µM (inactive) | GI50 (SF-295): 17.8 µM (inactive) | GI50 (SF-268): 40.1 µM (inactive) | GI50 (IGROV-1): 27.9 µM (inactive) | GI50 (NCI-H23): 39.7 µM (inactive) | GI50 (K562): 36.6 µM (inactive) | GI50 (HCT-116): 32.9 µM (inactive) | GI50 (RPMI-8226): 25.8 µM (inactive) | GI50 (NCI-H460): 40.7 µM (inactive) | GI50 (LOX IMVI): 40.8 µM (inactive) | GI50 (SK-MEL-5): 37.8 µM (inactive) | GI50 (NCI-H522): 28 µM (inactive) | GI50 (PC-3): 33.6 µM (inactive) | GI50 (SNB-19): 40.1 µM (inactive) | GI50 (EKVX): 31.4 µM (inactive) | GI50 (SK-OV-3): 26.7 µM (inactive) | GI50 (SW-620): 47.8 µM (inactive) | GI50 (NCI/ADR-RES): 44.5 µM (inactive) | GI50 (MDA-MB-231): 41.5 µM (inactive) | GI50 (A549): 35.9 µM (inactive) | GI50 (SN12C): 34 µM (inactive) | GI50 (ACHN): 37.8 µM (inactive) | GI50 (OVCAR-8): 39.4 µM (inactive) | GI50 (CCRF-CEM): 23.9 µM (inactive) | GI50 (SK-MEL-2): 31.2 µM (inactive) | GI50 (U-251): 30.7 µM (inactive) | GI50 (Hs-578T): 40.7 µM (inactive) | GI50 (MOLT-4): 26.5 µM (inactive) | GI50 (COLO 205): 27.9 µM (inactive) | GI50 (UACC-62): 37.5 µM (inactive) | GI50 (MCF7): 36.2 µM (inactive) | GI50 (HCC 2998): 61.2 µM (inactive) | GI50 (A498): 41.2 µM (inactive) | GI50 (T47D): 31.4 µM (inactive) | GI50 (OVCAR-5): 44.7 µM (inactive) | GI50 (UO-31): 37.6 µM (inactive) | GI50 (DU-145): 65.6 µM (inactive)

— ChEMBL document CHEMBL1201862, “PubChem BioAssay data set” (2004)
